Assay results reported in US9044476B2, “Use of uraria in promoting osteogenesis or providing neuroprotection” (TAIPEI MEDICAL UNIVERSITY, priority 2013, dated 2015).

Experiments:
Format in all cases: cell-based, human
HOb cells [1] = experiment: Mineralized matrix formation assay (Alizarin Red-S) in HOb cells; details: for formation of mineralized bone nodules: compounds 100 μM, 12 days
Method: (§1) HOb cells were plated in 24-well plates. Three days after plating, the old medium was discarded and the cells were treated with tested extracts (100 μg/ml) in mineralizing media (Osteoblast Differentiation Medium containing ascorbic acid (50 μg/ml) and β-glycerophosphate (10 mM) for 12 days. At the end of experiment, cultures were fixed in 75% ethanol, and mineralized nodule formation was assessed by Alizarin Red-S staining. The bound staining was eluted with a solution of 10% cetylpyridinium chloride and quantified using a microtiter plate reader. Data are shown as mean±SD (n=3). *P<0.05 and **P<0.01 as compared with control (n=3).
as §1, with “tested compounds” for “tested extracts”, “(100 μM)” for “(100 μg/ml)”, “Differentiation Medium)” for “Differentiation Medium”
(§2) Human osteoblasts (HOb) were primary cells derived from a person from a normal femoral bone and obtained from Cell Applications (San Diego, Calif., USA). HOb cells were grown in Osteoblast Growth Medium and maintained at 37° C. in 5% CO2 humidified atmosphere. The medium was changed every other day. To maintain exponential growth, the cells were subcultured every 7 days. HOb cells were used for cell viability, differentiation, and mineralization assays.
The mineralization activities of U. crinita extract and its constituents were measured by Alizarin Red-S staining of calcium. HOb cells were seeded in 24-well plates at a density of 7×10^4 cells per well. Three days after plating, the old medium was discarded and the cells were treated with tested extracts or compounds in mineralizing media (Osteoblast Differentiation Medium) containing ascorbic acid (50 μg/ml) and β-glycerophosphate (10 mM) for 12 days. At the end of experiment, cultures were fixed in 75% ethanol, and calcium deposits were stained for 15 minutes at room temperature with Alizarin Red-S solution (40 mM, pH 4.2). The bound staining was eluted with a solution of 10% (w/v) cetylpyridinium chloride in 10 mM sodium phosphate (pH 7.0) and quantified using a ELISA reader at 550 nm.

HOb cells [2] = experiment: Alkaline phosphatase (ALP) assay in HOb cells; details: compounds 100 μM, 72 h
Method: (§3) HOb cells were seeded in 96-well plates. Twenty-four hours after plating, the old medium was discarded and the cells were treated with tested extracts (100 μg/ml) in Osteoblast Differentiation Medium for 72 h. ALP activity was assessed using the p-nitrophenyl phosphate disodium substrate. Data are shown as mean±SD (n=3). *P<0.05 and **P<0.01 as compared with control (n=3).
as §3, with “compounds” for “extracts”, “μM)” for “μg/ml)”
as §2
The alkaline phosphatase (ALP) activities of U. crinita extract and its constituents were measured with p-nitrophenyl phosphate as the substrate. HOb cells were seeded in 96-well plates at a density of 4×10^3 cells per well. Twenty-four hours after plating, the old medium was discarded and the cells were treated with tested extracts or compounds in Osteoblast Differentiation Medium. After 72 hours incubation, the medium was discarded and the cells rinsed twice with cold PBS, and cells were lysed with lysis buffer (PBS containing 0.1% Triton X-100). The cellular protein concentration in supernatant was determined after incubation with BCA (bicinchoninic acid) protein reagent for 1 hour at 37° C. The reaction was stopped by adding 1M NaOH, and absorbance measured at 560 nm. Furthermore, the ALP activity in supernatant was assayed by incubation for 1 hour at 37° C. in 0.1 M NaHCO3—Na2CO3 buffer, pH 10, containing 0.1% Triton X-100, 2 mM MgSO4, and 6 mM p-nitrophenyl phosphate. The reaction was stopped by adding 1M NaOH and absorbance was measured at 405 nm. Each value was normalized to the protein concentration.

HOb cells [3] = experiment: Cell viability (MTT) assay in HOb cells; details: 100 μM, 72 hours
Method: as §3, with “compounds” for “extracts”, “μM)” for “μg/ml)”, “Cell viability” for “ALP activity”, “MTT assay.” for “p-nitrophenyl phosphate disodium substrate.”
as §2, with “HOb cells were used for cell viability, differentiation, and mineralization assays.” left out
The cell viability of U. crinita extract and its constituents were determined using the MTT assay as described elsewhere (Scudiero et al., 1988). […] The absorbance at 600 nm was recorded using an ELISA reader. […]

SMILES	formation of mineralized bone nodules (HOb cells [1])	ALP activity (HOb cells [2])	mineralization activity, ranking in words (HOb cells [1]; isolated compounds, 100 μM)	cell viability (HOb cells [3])
Nc1ncnc2c1ncn2[C@@H]1O[C@H](CO)[C@@H](O)[C@H]1O [Compound 7, adenosine]	125.21±3.75%	108.70±4.14%	–	–
CC1=CC(=O)CC(C)(C)[C@H]1CC[C@@H](C)O[C@@H]1O[C@H](CO)[C@@H](O)[C@H](O)[C@H]1O [Compound 9, byzantionoside B]	129.21±6.13%	114.81±0.18%	–	–
O=C1c2c(O)cc(O)cc2OCC1c1ccc(O)cc1O (stereo not shown) [Compound 1, dalbergioidin]	107.09±2.80%	114.10±4.41%	–	–
O=c1cc(-c2ccc(O)cc2)oc2cc(O)c(C3OCC(O)C(O)C3OC3OCC(O)(CO)C3O)c(O)c12 (stereo not shown) [Compound 3]	150.10±0.80%	109.68±2.20%	most potent mineralization activity	–
N[C@@H](Cc1c[nH]c2ccccc12)C(=O)O [Compound 5, tryptophan]	–	–	–	80.43±1.11%
